#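 Dose response: 5 concentrations. Exposure: 48 h. Format: 96-well plates. Endpoint: linear interpolation; highest concentration if not reached. At the GI50, growth is halved. TGI: total growth inhibition.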
# Experiments:
# Assay in all cases: DTP human tumour cell line panel, 48 h
# [1] = system: HCT-116 colon
# [2] = system: HOP-62 NSCLC
# [3] = system: K-562 leukemia
# [4] = system: KM12 colon
# [5] = system: M14 melanoma
# [6] = system: NCI-H23 lung
# [7] = system: NCI/ADR-RES ovarian
# [8] = system: OVCAR-4 ovarian
# [9] = system: SNB-19 CNS
# [10] = system: BT-549 breast
Structure (SMILES),TGI [1] [µM],TGI [2] [µM],TGI [3] [µM],TGI [4] [µM],TGI [5] [µM],TGI [6] [µM],TGI [7] [µM],TGI [8] [µM],TGI [9] [µM],TGI [10] [µM],GI50 [10] [µM],GI50 [1] [µM],GI50 [3] [µM],GI50 [4] [µM],GI50 [5] [µM],GI50 [9] [µM],GI50 [2] [µM],GI50 [6] [µM],GI50 [7] [µM],GI50 [8] [µM]
CN(C)CCOC(=O)COc1ccc(Cl)cc1,> 100,> 100,> 100,> 100,> 100,> 100,> 100,> 100,> 100,–,–,–,–,–,–,–,–,–,–,–
O=C(Nn1c(-c2ccccc2)nc2ccccc2c1=O)c1ccccn1,> 100,> 100,> 100,> 100,> 100,> 100,> 100,> 100,> 100,> 100,–,–,–,–,–,–,–,–,–,–
O=C(O)C(CCc1ccccn1)c1ccccc1 (stereo not drawn),> 100,> 100,> 100,> 100,> 100,> 100,> 100,> 100,> 100,> 100,–,–,–,–,–,–,–,–,–,–
COc1ccc(C(O)c2ccc3c(c2)OCO3)cc1 (stereo not drawn),> 100,> 100,> 100,> 100,> 100,> 100,> 100,> 100,> 100,> 100,–,–,–,–,–,–,–,–,–,–
O=C(c1ccccc1)c1c(C(F)(F)F)n([O-])c2ccccc2[n+]1=O,> 100,> 100,–,3.89,–,3.71,> 100,1.11,3.23,1.93,–,–,–,–,–,–,–,–,–,–
CCOC(=O)c1cc2c(OC(C)=O)ccc(OC(C)=O)c2s1,9,23.9,–,17.6,3.26,5.51,5.79,31.3,19.9,4.97,–,–,–,–,–,–,–,–,–,–
Cn1c(=O)c2c(-c3ccccc3)onc2n(C)c1=O,> 100,> 100,> 100,> 100,> 100,41.6,> 100,> 100,> 100,45.2,–,–,–,–,–,–,–,–,–,–
CN(CCc1ccc(Cl)c(Cl)c1)[C@H]1CCCC[C@H]1N1CCCC1,> 100,> 100,> 100,> 100,> 100,> 100,> 100,> 100,> 100,> 100,–,–,–,–,–,–,–,–,–,–
Cc1cccc(C(C)(C)C)c1NC(=O)/C(Cc1nc2ccc([N+](=O)[O-])cc2[nH]c1=O)=N/NC(=O)C[N+](C)(C)C,> 100,–,> 100,> 100,> 100,> 100,> 100,> 100,> 100,> 100,–,–,–,–,–,–,–,–,–,–
CCCCC[C@@H]1OCO[C@@]2(C)/C=C(C)/C=C/C(=O)O[C@H]([C@@H](C)[C@@H](O)[C@H](C)[C@@]3(O)C[C@@H](O[C@H]4C[C@@H](O)[C@H](O)[C@@H](C)O4)[C@H](C)[C@@H](C)O3)[C@@H](OC)/C=C/C=C(\C)C[C@@H]1[C@@H]2O (stereo in doubt),0.609,7.02,7.54,5.36,< 0.005,11.5,15.8,8.38,7.78,16.5,–,–,–,–,–,–,–,–,–,–
COc1cc2cc(C(=O)N3CC(CCl)c4c3cc(N)c3ccccc43)[nH]c2cc1OCCN(C)C (stereo not drawn),0.623,0.00741,1.12,0.0116,0.00977,0.00833,0.175,–,–,0.409,–,–,–,–,–,–,–,–,–,–
CC(=O)O[C@H]1C#C/C=C\C#CC[C@@H]2C(=O)N(C(=O)OC(C)(C)C)[C@@H]12,> 89.4,39.6,> 100,> 86.7,> 100,> 69,74.7,> 100,97,> 81.4,–,–,–,–,–,–,–,–,–,–
COC(=O)c1sc(=S)sc1SCc1ccccc1CSc1sc(=S)sc1C(=O)OC,> 100,> 100,> 100,> 100,> 100,> 100,> 100,> 100,> 100,> 100,–,–,–,–,–,–,–,–,–,–
O=C1c2[nH]cc(CN3CCNCC3)c2C(=O)c2c1c(O)c1ccccc1c2O,2.25,1.14,> 100,53,3.23,–,–,–,6,20.3,4.86,1.07,3.42,20.9,1.53,2.22,–,–,–,–
CC(NC(=O)/C(=C/c1ccccc1O)NC(=O)c1ccccc1)C(=O)O (stereo not drawn),> 100,–,> 100,> 100,> 100,> 100,33.4,> 100,55.2,50.2,–,–,–,–,–,–,–,–,–,–
N#Cc1c(NC(=O)c2ccccc2)sc2c1CCC(=O)C2,–,> 100,> 100,5.22,–,6.99,11.8,2.49,> 100,–,–,–,0.467,0.711,–,3.48,2.55,0.768,1.33,0.806
O=C1NC(=S)N/C1=C/c1ccccc1O,> 100,> 100,–,–,> 100,> 100,> 100,> 100,> 100,> 100,–,–,–,–,–,–,–,–,–,–
COc1cccc(NC(=O)CSc2nnc(-c3ccc(N=Cc4ccc(Cl)cc4)cc3)o2)c1,36.3,> 100,> 100,31.3,47,41.1,–,> 100,53.2,–,–,–,–,–,–,–,–,–,–,–
Cc1cc(Cc2c(F)c(F)c(Cc3cc(C)no3)c(F)c2F)on1,> 100,62.8,> 100,–,> 100,> 100,> 100,> 100,> 100,> 100,–,–,–,–,–,–,–,–,–,–
CC1=CC(O)C(O)C2(C)C1CC1OC(=O)C(O)C3C(C)C(O)C4(O)OCC13C42 (stereo not drawn),> 625,348,> 394,389,–,250,> 625,476,91.7,–,–,–,–,–,–,–,–,–,–,–
NC(Cc1cc(I)c(O)c(I)c1)C(=O)O (stereo not drawn),> 500,> 500,> 500,> 500,–,> 356,> 316,332,> 500,–,–,–,–,–,–,–,–,–,–,–
CC(=O)/C=C/C=C(\C)CC/C=C(\C)CC(C)C,62.8,> 100,56.8,95.3,> 100,54.9,–,> 100,> 100,–,–,–,–,–,–,–,–,–,–,–

# Reference: PubChem BioAssay (NCI)
